# Experimental data taken from patent US7763604B2, “Methods for administration of a farnesyl dibenzodiazepinone” (Thallion Pharma Ceuticals, Inc., priority 2005, dated 2010).
# How the values were obtained:
# [1] = population pharmacokinetic analysis, rat (IV + CIV); type: in vivo; settings: population PK
# Experimental: An analysis was performed to derive allometric equations for Formula I pharmacokinetic parameters using Formula I plasma concentration-time data from three species, including mouse, rat, and monkey, and to estimate human pharmacokinetic parameters from those allometric equations.
# Plasma concentrations of Formula I were obtained from mice, rats, and monkeys following intravenous injection or continuous infusion. Formula I pharmacokinetic parameters in mice, rats, and monkeys were estimated using population pharmacokinetic analysis, a function of the software program NONMEM™ (version 5). Typical population pharmacokinetic parameters for Formula I in humans were extrapolated from allometric equations that were derived from pharmacokinetic parameters estimated in the three animal species.
# A two-compartment model with a first-order elimination from the central compartment adequately described Formula I plasma concentration-time profiles following intravenous bolus injection (30 mg/kg) in mice and rats, 7-day continuous infusion in rats (50 to 170 mg/kg/day), and 14-day continuous infusion in monkeys (5 to 30 mg/kg/day).
# [2] = test system: rat glioma (C6) tumor xenograft; experiment: rat C6 glioblastoma subcutaneous tumor model, antitumor efficacy; type: in vivo, female athymic (nu/nu) nude mice
# Experimental: The rat C6 glioblastoma antitumor efficacy study was performed at INSERM U318 (Grenoble, France). The rat C6 glioblastoma subcutaneous tumor model is based on the use of a rat C6 cell line obtained from a rat glial tumor induced by N-nitrosomethylurea (Benda et al. (1968), Science, vol 161, 370-371). These animal studies were done according to ethical guidelines of animal experimentation (Charte du comité d'éthique du CNRS, 2003) and the English “Guidelines for the welfare of animals in experimental neoplasia (Second Edition)” from the United Kingdom Coordinating Committee on Cancer Research (UKCCCR) (Workman et al. (1998), Br. J. Cancer, vol 77, no 1, 1-10). On each dosing day, Formula I stock solutions (24 and 40 mg/mL in 20% ethanol, 20% PEG-400 and 60% Tween 80) were diluted with sterile 5% dextrose in water (D5W) to prepare dosing solutions of 6 mg/mL and 10 mg/mL of Formula I in a vehicle consisting of 5% ethanol, 5% PEG-400, 15% Tween-80, and 75% D5W.
# For the rat glioma antitumor efficacy study, female athymic (nu/nu) nude mice (6-7 weeks of age) were inoculated SC with 5×10^6 C6 cells (day 0). Tumor bearing animals were randomized (10 per group) when tumors were palpable (day 6). Group 1 (control group) received drug-free vehicle (5% ethanol, 5% PEG-400, 15% Tween-80, and 75% D5W) IP (5 mL/kg), once daily on days 6-18 (q1d×13). Group 2 received Formula I (6 mg/mL) IP at 20 mg/kg, once daily on days 6 to 13 and then at 10 mg/kg once daily on days 14 to 18. Group 3 received Formula I (6 mg/mL) SC at 30 mg/kg, once daily on days 6 to 13 and then at 15 mg/kg once daily on days 14 to 18. Group 4 received Formula I (10 mg/mL) IV at 100 mg/kg q1d×5 for 2 weeks. Each animal was euthanized when its tumor reached the predetermined endpoint size (˜2,500 mm^3) or at the end of the study (D18). Treatment period was over 13 days, from day 6 to day 18, post tumor cell inoculation. Tumor growth inhibition (TGI) was calculated on day 16 post tumor cell inoculation, at which time some animals from the vehicle control group had to be sacrificed due to tumor burden.
# In this model and the models of Examples 3, 6 and 7, tumor growth was followed every other day by measuring tumor length (L) and width (W) using a calliper. Measurements were converted to tumor volumes (TV; mm^3) using the standard formula, TV=(L×W^2)/2. Tumor volume at day n was expressed as relative tumor volume (RTV) according to the following formula RTV=TVn/TV0, where TVn is the tumor volume at day n and TV0 is the tumor volume at day 0. The percentage of tumor growth inhibition (% TGI) was determined by 1−(mean RTV of treated group/mean RTV of control group)×100. […] Statistical analysis was calculated by the two-tailed unpaired t test using the Prism software. […]
compound,measurement,setting,value
"CC(C)=CCC/C(C)=C/CC/C(C)=C/CN1C(=O)c2cccc(O)c2Nc2c(O)cc(O)cc21 [Formula I, 10-farnesyl-4,6,8-trihydroxy-dibenzodiazepin-11-one]",Ke,[1],8.651 h⁻¹
same,Maximum body weight loss,"[2]; IP 20 mg/kg (Q1D×8) followed by 10 mg/kg (Q1D×7), Day 13",15%
same,tumor volume relative to the vehicle control,[2]; IV bolus 100 mg/kg (Q1D×5) over 2 weeks,No significant difference in tumor volume
same,body weight loss,"[2]; IV group, 100 mg/kg (Q1D×5) over 2 weeks",No significant body weight loss
same,Maximum body weight loss,[2]; SC 30 mg/kg (Q1D×8) followed by 15 mg/kg (Q1D×7),11%
